Measured values as given in patent US20220033407A1, “N-(pyridin-2-ylsulfonyl)cyclopropanecarboxamide Derivatives and their Use in the Treatment of Disease” (NOVARTIS AG, priority 2018, published 2022).

Molecular target: T1, delF508-CFTR-HRP (Homo sapiens, UniProt P13569, DEL508-508)
T1 construct: expressed in transfected cells
Experiment: Measurement of delF508-CFTR-HRP surface expression in CFBE41o- cells (HRP luminescence);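 for DelF508-CFTR-HRP Amax %: percent efficacy relative to a reference CFTR corrector compound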
Assay type: cell-based
Settings: for Emax: CFBE41o-, read-out: DelF508-CFTR-HRP Amax %; for EC50: mean of at least two replicates
Description: Measurement of delF508-CFTR-HRP Surface Expression in CFBE41o-Cells
This assay quantifies the cell surface expressions of the mutant CFTR channel using an extracellular HRP tag.
A cellular assay was developed to measure surface expression of horseradish peroxidase (HRP) tagged delF508-CFTR in the human bronchial epithelial immortalized CFBE41o-cell line (Phuan, P. W., et al, (2014) Molecular Pharmacology 86:42-51). Specifically, the HRP sequence was inserted into the fourth extracellular loop of delF508-CFTR and stably expressed in CFBE41o-cells. Cells were seeded in 384 well plate at a density of 5000 cells/well and incubated at 37° C. for 12 to 24 hours in medium (Gibco MEM #11095, 10% FBS, 10 mM HEPES, […], 200 μg/mL G418, 3 μg/mL Puromycin). The delF508-CFTR-HRP expression was induced with 500 ng/mL doxycycline (Sigma D-9891, dissolved in H2O and sterile filtered) in medium and the cells were incubated at 37° C. for 48 h. Old medium was removed and fresh medium was added containing 500 ng/mL doxycycline and unknown test compound at required test concentration in DMSO, not exceeding 0.5% final DMSO concentration. The highest concentration tested was 10 μM with a 10-point concentration response curve using a 3-fold dilution. After addition of compounds, the cells were incubated for 24 h at 37° C. On the final day, cells were washed four times in PBS containing 1 mM MgCl2 and 0.1 mM CaCl2. HRP-Substrate (SuperSignal ELISA Pico, Fisher #37069) 20 μl/well was added and the luminescence signal was determined (Viewlux, Perkin Elmer). Light was emitted upon addition of exogenous HRP-Substrate only when delF508-CFTR-HRP reached the cell surface and the HRP tag was accessible to the HRP-Substrate (note: HRP-Substrate cannot cross the lipid bilayer to reach delF508-CFTR-HRP misfolded within the cell).
The median activity for the lowest concentration of the compounds on each assay plate was calculated and this value was used to normalize the signal for each well on the respective plate. Three replicates at each concentrations for every compound were run to determine one EC50. The median value was determined and used to calculate compound activities as described below. Effective half maximal values (EC50) were calculated for each compound by performing logistic regression on measured dose-response data points using the equation: […]
where “Y” is the observed activity, “Bottom” is the lowest observed value, “Top” is the highest observed value, and the “Hill coefficient” gives the largest absolute value of the slope. The curve fitting is carried out by a curve fitting program implemented at GNF using Matlab (Mathworks). The dose response curves also were used to calculate Fold Change (FC) using the equation: […]
Compound efficacy relative to the reference compound 3-(6-(1-(2,2-difluorobenzo[d][1,3]dioxol-5-yl)cyclopropane-1-carboxamido)-3-methylpyridin-2-yl)benzoic acid was determined using the following formula: […]

T1 sequence (P13569 with tags, fused parts or gaps DEL508-508): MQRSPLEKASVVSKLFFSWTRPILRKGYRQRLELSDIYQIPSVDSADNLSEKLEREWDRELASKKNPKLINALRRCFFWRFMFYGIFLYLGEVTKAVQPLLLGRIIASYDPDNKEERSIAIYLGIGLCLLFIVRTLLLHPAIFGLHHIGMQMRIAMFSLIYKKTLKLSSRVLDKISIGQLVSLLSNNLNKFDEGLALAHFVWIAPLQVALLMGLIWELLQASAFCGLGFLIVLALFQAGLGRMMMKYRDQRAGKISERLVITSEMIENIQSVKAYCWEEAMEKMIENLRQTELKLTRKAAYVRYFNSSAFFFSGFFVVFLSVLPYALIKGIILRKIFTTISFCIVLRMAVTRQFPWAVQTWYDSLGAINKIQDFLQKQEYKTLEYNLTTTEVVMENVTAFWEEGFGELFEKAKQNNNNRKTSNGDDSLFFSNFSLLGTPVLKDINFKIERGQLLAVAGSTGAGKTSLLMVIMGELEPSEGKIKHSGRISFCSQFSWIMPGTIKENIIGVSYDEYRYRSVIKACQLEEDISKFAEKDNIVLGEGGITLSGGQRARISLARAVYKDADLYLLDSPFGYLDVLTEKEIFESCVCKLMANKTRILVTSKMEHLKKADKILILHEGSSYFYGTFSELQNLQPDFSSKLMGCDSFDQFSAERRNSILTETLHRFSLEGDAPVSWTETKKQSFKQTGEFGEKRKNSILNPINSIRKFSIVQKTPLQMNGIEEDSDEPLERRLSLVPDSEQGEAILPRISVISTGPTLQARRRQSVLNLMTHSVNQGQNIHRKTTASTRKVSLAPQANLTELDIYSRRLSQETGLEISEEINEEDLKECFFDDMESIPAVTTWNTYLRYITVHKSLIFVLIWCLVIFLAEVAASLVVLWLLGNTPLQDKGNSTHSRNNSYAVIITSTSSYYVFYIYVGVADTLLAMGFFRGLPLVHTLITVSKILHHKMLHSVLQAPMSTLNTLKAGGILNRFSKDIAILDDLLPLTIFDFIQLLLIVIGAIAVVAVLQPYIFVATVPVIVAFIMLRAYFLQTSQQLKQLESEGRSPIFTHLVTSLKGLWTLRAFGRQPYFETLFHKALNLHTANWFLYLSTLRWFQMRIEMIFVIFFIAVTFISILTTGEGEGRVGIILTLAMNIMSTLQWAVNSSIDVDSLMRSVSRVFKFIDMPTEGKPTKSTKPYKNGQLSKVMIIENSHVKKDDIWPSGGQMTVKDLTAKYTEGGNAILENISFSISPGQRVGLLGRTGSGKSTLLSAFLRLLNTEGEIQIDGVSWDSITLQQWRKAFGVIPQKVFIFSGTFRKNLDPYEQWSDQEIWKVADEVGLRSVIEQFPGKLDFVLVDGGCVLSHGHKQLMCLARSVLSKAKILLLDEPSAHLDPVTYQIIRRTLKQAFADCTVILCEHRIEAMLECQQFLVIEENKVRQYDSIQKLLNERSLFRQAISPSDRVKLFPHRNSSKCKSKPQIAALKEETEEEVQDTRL

SMILES | Emax [%] | EC50 [µM]
O=C(NS(=O)(=O)c1cccc(N2CCC(O)(C(F)(F)F)CC2)n1)C1(Oc2cc(Cl)ccc2N2CC3(CCCCC3)C2)CC1 [Example 9-2, 1-(5-chloro-2-(2-azaspiro[3.5]nonan-2-yl)phenoxy)-N-((6-(4-hydroxy-4-(trifluoromethyl)piperidin-1-yl)pyridin-2-yl)sulfonyl)cyclopropanecarboxamide] | 366 | 0.6
CC1(C)CCN(c2ccc(Cl)cc2OC2(C(=O)NS(=O)(=O)c3cccc(N4CCN5C(=O)CCC5C4)n3)CC2)CC1 (stereo not drawn) [Example 10-10, 1-(8-chloro-2-(4,4-dimethylpiperidin-1-yl)phenoxy)-N-((6-(6-oxohexahydropyrrolo[1,2-a]pyrazin-2(1H)-yl)pyridin-2-yl)sulfonyl)cyclopropanecarboxamide] | 210 | 2.62
O=C(NS(=O)(=O)c1cccc(N2CC[C@@H](O)C2)n1)C1(Oc2cc(Cl)ccc2N2CCC3(CC2)CC3)CC1 [Example 9-29, (R)-1-(5-Chloro-2-(6-azaspiro[2.5]octan-6-yl)phenoxy)-N-((6-(3-hydroxypyrrolidin-1-yl)pyridin-2-yl)sulfonyl)cyclopropanecarboxamide] | 691 | 0.95
Cc1ccc(OC2CCCC2)c(OC2(C(=O)NS(=O)(=O)c3cccc(N4CC[C@H](O)C4)n3)CC2)c1 [Example 6-13, (S)-1-(2-(cyclopentyloxy)-5-methylphenoxy)-N-((6-(3-hydroxypyrrolidin-1-yl)pyridin-2-yl)sulfonyl)cyclopropanecarboxamide] | 285 | 2.55
CC1(C)CCN(c2ccc(Cl)cc2OC2(C(=O)NS(=O)(=O)c3cccc(N4CCC5(CC4)OCc4ccccc45)n3)CC2)CC1 [Example 10-8, N-((6-(3H-spiro[isobenzofuran-1,4′-piperidin]-1′-yl)pyridin-2-yl)sulfonyl)-1-(5-chloro-2-(4,4-dimethylpiperidin-1-yl)phenoxy)cyclopropanecarboxamide] | 307 | 0.43
O=C(NS(=O)(=O)c1cccc(N2CC[C@H](O)C2)n1)C1(Oc2cc(Cl)ccc2OC2CCCC2)CC1 [Example 6-14, (S)-1-(5-chloro-2-(cyclopentyloxy)phenoxy)-N-((6-(3-hydroxypyrrolidin-1-yl)pyridin-2-yl)sulfonyl)cyclopropanecarboxamide] | 276 | 3.24
O=C(NS(=O)(=O)c1cccc(N2CC[C@H](O)C2)n1)C1(Oc2cc(C(F)(F)F)ccc2N2CC3(CCC3)C2)CC1 [Example 9-25, (S)-1-(2-(2-Azaspiro[3.3]heptan-2-yl)-5-(trifluoromethyl)phenoxy)-N-((6-(3-hydroxypyrrolidin-1-yl)pyridin-2-yl)sulfonyl)cyclopropanecarboxamide] | 408 | 1.76
O=C(NS(=O)(=O)c1cccc(N2CC[C@H](O)C2)n1)C1(Oc2cc(Cl)ccc2-c2cccc(OC(F)(F)F)c2)CC1 [Example 5-6, (S)-1-((4-Chloro-3′-(trifluoromethoxy)-[1,1′-biphenyl]-2-yl)oxy)-N-((6-(3-hydroxypyrrolidin-1-yl)pyridin-2-yl)sulfonyl)cyclopropane-1-carboxamide] | 280 | 1.77
Cc1cnc(N2CCC(C)(C)CC2)c(OC2(C(=O)NS(=O)(=O)c3cccc(N4CC[C@H](O)C4)n3)CC2)c1 [Example 10-11, (S)-1-((2-(4,4-dimethylpiperidin-1-yl)-5-methylpyridin-3-yl)oxy)-N-((6-(3-hydroxypyrrolidin-1-yl)pyridin-2-yl)sulfonyl)cyclopropanecarboxamide] | 181 | 2.95
CC1(C)CCCN(c2ccc(Cl)cc2OC2(C(=O)NS(=O)(=O)c3cccc(N4CCC(O)(C(F)(F)F)CC4)n3)CC2)C1 [Example 10-7, 1-(5-chloro-2-(3,3-dimethylpiperidin-1-yl)phenoxy)-N-((6-(4-hydroxy-4-(trifluoromethyl)piperidin-1-yl)pyridin-2-yl)sulfonyl)cyclopropanecarboxamide] | 604 | 0.16
CC1(C)CCN(c2ccc(Cl)cc2OC2(C(=O)NS(=O)(=O)c3cccc(N4CCC(c5ccccn5)CC4)n3)CC2)CC1 [Example 10-3, 1-(5-chloro-2-(4,4-dimethylpiperidin-1-yl)phenoxy)-N-((6-(4-(pyridin-2-yl)piperidin-1-yl)pyridin-2-yl)sulfonyl)cyclopropanecarboxamide] | 493 | 0.6
COCCN(C)c1cccc(S(=O)(=O)NC(=O)C2(Oc3cc(Cl)ccc3N3CCC(C)(C)CC3)CC2)n1 [Example 10-5, 1-(5-chloro-2-(4,4-dimethylpiperidin-1-yl)phenoxy)-N-((6-((2-methoxyethyl)(methyl)amino)pyridin-2-yl)sulfonyl)cyclopropanecarboxamide] | 475 | 1.02
O=C(NS(=O)(=O)c1cccc(N2CC3(CCO3)C2)n1)C1(Oc2cc(Cl)ccc2C2CC3(CCC3)C2)CC1 [Example 7-5, N-((6-(1-oxa-6-azaspiro[3.3]heptan-6-yl)pyridin-2-yl)sulfonyl)-1-(5-chloro-2-(spiro[3.3]heptan-2-yl)phenoxy)cyclopropanecarboxamide] | 493 | 0.88
O=C(NS(=O)(=O)c1cccc(N2CC[C@H](O)C2)n1)C1(Oc2cc(Cl)ccc2N2CC3(CCOCC3)C2)CC1 [Example 9-36, (S)-1-(5-Chloro-2-(7-oxa-2-azaspiro[3.5]nonan-2-yl)phenoxy)-N-((6-(3-hydroxypyrrolidin-1-yl)pyridin-2-yl)sulfonyl)cyclopropanecarboxamide] | 52 | 1.69
O=C(NS(=O)(=O)c1cccc(N2CC3CCC(C2)O3)n1)C1(Oc2cc(Cl)ccc2C2CC3(CCC3)C2)CC1 [Example 7-16, N-((6-(8-Oxa-3-azabicyclo[3.2.1]octan-3-yl)pyridin-2-yl)sulfonyl)-1-(5-chloro-2-(spiro[3.3]heptan-2-yl)phenoxy)cyclopropane-1-carboxamide] | 381 | 1.24
O=C(NS(=O)(=O)c1cccc(N2CC[C@H](O)C2)n1)C1(Oc2cc(Cl)ccc2N2CC3(CCCCO3)C2)CC1 [Example 9-8, (S)-1-(5-Chloro-2-(5-oxa-2-azaspiro[3.5]nonan-2-yl)phenoxy)-N-((6-(3-hydroxypyrrolidin-1-yl)pyridin-2-yl)sulfonyl)cyclopropanecarboxamide] | 204 | 4.04
CC1(C)CCCN(c2ccc(Cl)cc2OC2(C(=O)NS(=O)(=O)c3cccc(N4CC[C@H](O)C4)n3)CC2)C1 [Example 9-4, (S)-1-(5-chloro-2-(3,3-dimethylpiperidin-1-yl)phenoxy)-N-((6-(3-hydroxypyrrolidin-1-yl)pyridin-2-yl)sulfonyl)cyclopropanecarboxamide] | 835 | 0.75
CC1(C)CCCN(c2ccc(Cl)cc2OC2(C(=O)NS(=O)(=O)c3cccc(N4CC[C@](C)(O)C4)n3)CC2)C1 [Example 9-27, (S)-1-(5-Chloro-2-(3,3-dimethylpiperidin-1-yl)phenoxy)-N-((6-(3-hydroxy-3-methylpyrrolidin-1-yl)pyridin-2-yl)sulfonyl)cyclopropanecarboxamide] | 857 | 0.61
